{"source": "patent US20100105139A1", "about": "“Ligand Targeted Nanocapsules for the delivery of RNAi and other Agents” (priority 2008, published 2010)", "origin": "cited, not measured here", "system": "advanced stage melanoma", "conditions": "melanoma patients"}
{"smiles": "COc1cccc2c1C(=O)c1c(O)c3c(c(O)c1C2=O)C[C@@](O)(C(=O)CO)C[C@@H]3O[C@H]1C[C@H](N)[C@H](O)[C@H](C)O1", "note": "[DOX, Doxorubicin]", "values": [{"measurement": "response rates", "value": "essentially ineffective"}]}
